Reference: ChEMBL document CHEMBL5038660, “Computational and Structure-Based Development of High Potent Cell-Active Covalent Inhibitor Targeting the Peptidyl-Prolyl Isomerase NIMA-Interacting-1 (Pin1)” (J Med Chem, 2022)
Values belong to the compound of their own block, whether it stands above or below them. Calls of active or inactive are those of the source. The rule behind the calls is not given here.

Legend:
[1] = molecular target: T1, Peptidyl-prolyl cis-trans isomerase NIMA-interacting 1 (Homo sapiens, UniProt Q13526); assay: Covalent binding affinity to N-terminal His6-tagged human Pin1 expressed in Escherichia coli BL21 (DE3) incubated for overnight by mass spectrometry
[2] = molecular target: T1, Peptidyl-prolyl cis-trans isomerase NIMA-interacting 1; assay: Ratio of test compound IC50 to ZL-Pin01 IC50 for N-terminal-GST-fused human Pin1 expressed in Escherichia coli BL21(DE3) by fluorescence polarization assay
[3] = system: MDA-MB-231; assay: Downregulation of cyclin D1 protein expression in human MDA-MB-231 cells transfected with PIN1 siRNA at 5 to 10 uM by western blot analysis; format: functional, cell-based; conditions: dose 5-10 µM
[4] = system: MDA-MB-231; assay: Antiproliferative activity against human MDA-MB-231 cells assessed as reduction in cell viability incubated for 3 days by CellTiter-Glo luminescent assay; format: functional, cell-based; conditions: MDA-MB-231, 72 h
[5] = system: MDA-MB-468; assay: Antiproliferative activity against human MDA-MB-468 cells assessed as reduction in cell viability incubated for 3 days by CellTiter-Glo luminescent assay; format: functional, cell-based; conditions: MDA-MB-468, 72 h
[6] = system: MDA-MB-468; assay: Antiproliferative activity against human MDA-MB-468 cells assessed as reduction in cell viability incubated for 8 days with 48 hrs fresh compound replenishment by CellTiter-Glo luminescent assay; format: functional, cell-based; conditions: time 8.0 day
[7] = molecular target: T1, Peptidyl-prolyl cis-trans isomerase NIMA-interacting 1; assay: Inhibition of Pin1 in human MDA-MB-231 cells assessed as induction of Pin1 degradation incubated for 16 hrs by immunoblot analysis; format: cell-based; conditions: dose 2.5-15 µM
[8] = molecular target: T1, Peptidyl-prolyl cis-trans isomerase NIMA-interacting 1; assay: Inhibition of Pin1 in human MDA-MB-231 cells assessed as reduction in MCL-1 level at 5 to 10 uM by western blot analysis; format: cell-based; conditions: dose 5-10 µM
[9] = molecular target: T1, Peptidyl-prolyl cis-trans isomerase NIMA-interacting 1; assay: Inhibition of Pin1 in human MDA-MB-231 cells assessed as reduction in c-Myc level at 5 to 10 uM by western blot analysis; format: cell-based; conditions: dose 5-10 µM
[10] = molecular target: T1, Peptidyl-prolyl cis-trans isomerase NIMA-interacting 1; assay: Inhibition of Pin1 in human MDA-MB-231 cells assessed as reduction in cyclin D1 level at 5 to 10 uM by western blot analysis; format: cell-based; conditions: dose 5-10 µM
[11] = system: MDA-MB-231; assay: Downregulation of MCL-1 gene expression in PIN-1 knockout human MDA-MB-231 cells at 4 to 8 uM incubated for 24 hrs by qRT-PCR analysis; format: functional, cell-based; conditions: dose 4-8 µM
[12] = system: MDA-MB-231; assay: Downregulation of CCND1 gene expression in PIN-1 knockout human MDA-MB-231 cells at 4 to 8 uM incubated for 24 hrs by qRT-PCR analysis; format: functional, cell-based; conditions: dose 4-8 µM
[13] = system: MDA-MB-231; assay: Downregulation of C-MYC gene expression in PIN-1 knockout human MDA-MB-231 cells at 4 to 8 uM incubated for 24 hrs by qRT-PCR analysis; format: functional, cell-based; conditions: dose 4-8 µM
[14] = molecular target: T1, Peptidyl-prolyl cis-trans isomerase NIMA-interacting 1; assay: Displacement of 5-FITC-(Acp)-Bth-D-pThr-Pip-2-NaI-Q from N-terminal-GST-fused human Pin1 expressed in Escherichia coli BL21(DE3) incubated for 12 hrs by fluorescence polarization assay
[15] = molecular target: T1, Peptidyl-prolyl cis-trans isomerase NIMA-interacting 1; assay: Covalent binding affinity to Cys113 residue of N-terminal His6-tagged human Pin1 expressed in Escherichia coli BL21 (DE3) incubated for overnight followed by tryptic digestion for 16 hrs by HPLC-nESI MS/MS scan analysis
[16] = molecular target: T1, Peptidyl-prolyl cis-trans isomerase NIMA-interacting 1; assay: Covalent binding affinity to N-terminal His6-tagged human Pin1 expressed in Escherichia coli BL21 (DE3) assessed as increase in 418.16 Da molecular weight incubated for overnight by mass spectrometry
[17] = species on record: Homo sapiens; assay: Displacement of 5-FITC-(Acp)-Bth-D-pThr-Pip-2-NaI-Q from human Pin1 C57A mutant expressed in Escherichia coli BL21(DE3) incubated for 12 hrs by fluorescence polarization assay
[18] = system: Peptidyl-prolyl cis-trans isomerase NIMA-interacting 1 (Homo sapiens), Q13526 [C113A]; assay: Displacement of 5-FITC-(Acp)-Bth-D-pThr-Pip-2-NaI-Q from human Pin1 C113A mutant expressed in Escherichia coli BL21(DE3) incubated for 12 hrs by fluorescence polarization assay
[19] = system: Peptidyl-prolyl cis-trans isomerase NIMA-interacting 1 (Homo sapiens), Q13526 [C113A]; assay: Covalent binding affinity to N-terminal His6-tagged human Pin1 C113A mutant expressed in Escherichia coli BL21(DE3) at compound:protein ratio of 3:1 to 5:1 incubated for overnight by mass spectrometry
[20] = molecular target: T1, Peptidyl-prolyl cis-trans isomerase NIMA-interacting 1; assay: Displacement of 5-FITC-(Acp)-Bth-D-pThr-Pip-2-NaI-Q from N-terminal-GST-fused human Pin1 expressed in Escherichia coli BL21(DE3) assessed as maximum rate of inactivation incubated for 12 hrs by fluorescence polarization assay
[21] = molecular target: T1, Peptidyl-prolyl cis-trans isomerase NIMA-interacting 1; assay: Displacement of 5-FITC-(Acp)-Bth-D-pThr-Pip-2-NaI-Q from N-terminal-GST-fused human Pin1 expressed in Escherichia coli BL21(DE3) assessed as Kinact/Ki ratio incubated for 12 hrs by fluorescence polarization assay
[22] = system: MDA-MB-468; assay: Inhibition of colony formation in human MDA-MB-468 cells at 0.25 to 4 uM incubated for 12 days with 48 hrs fresh compound replenishment by crystal violet staining based analysis; format: functional, cell-based; conditions: dose 0.25-4 µM, time 12.0 day
[23] = system: MDA-MB-231; assay: Inhibition of colony formation in human MDA-MB-231 cells at 0.25 to 4 uM incubated for 12 days with 48 hrs fresh compound replenishment by crystal violet staining based analysis; format: functional, cell-based; conditions: dose 0.25-4 µM, time 12.0 day
[24] = system: MDA-MB-231; assay: Downregulation of MCL-1 protein expression in human MDA-MB-231 cells transfected with PIN1 siRNA at 5 to 10 uM by western blot analysis; format: functional, cell-based; conditions: dose 5-10 µM
[25] = system: MDA-MB-231; assay: Downregulation of c-Myc protein expression in human MDA-MB-231 cells transfected with PIN1 siRNA at 5 to 10 uM by western blot analysis; format: functional, cell-based; conditions: dose 5-10 µM
[26] = molecular target: T1, Peptidyl-prolyl cis-trans isomerase NIMA-interacting 1; assay: Inhibition of Pin1 in human MDA-MB-231 cells assessed as reduction in MCL-1 gene expression incubated for 24 hrs by qRT-PCR analysis; format: cell-based; conditions: dose 4-8 µM
[27] = molecular target: T1, Peptidyl-prolyl cis-trans isomerase NIMA-interacting 1; assay: Inhibition of Pin1 in human MDA-MB-231 cells assessed as reduction in C-MYC gene expression incubated for 24 hrs by qRT-PCR analysis; format: cell-based; conditions: dose 4-8 µM
[28] = molecular target: T1, Peptidyl-prolyl cis-trans isomerase NIMA-interacting 1; assay: Inhibition of Pin1 in human MDA-MB-231 cells assessed as reduction in CCND1 gene expression incubated for 24 hrs by qRT-PCR analysis; format: cell-based; conditions: dose 4-8 µM
[29] = molecular target: T1, Peptidyl-prolyl cis-trans isomerase NIMA-interacting 1; assay: Displacement of 5-FITC-(Acp)-Bth-D-pThr-Pip-2-NaI-Q from N-terminal-GST-fused human Pin1 expressed in Escherichia coli BL21(DE3) at 20 to 50 uM incubated for 12 hrs by fluorescence polarization assay; conditions: dose 20-50 µM
[30] = system: MDA-MB-468; assay: Inhibition of colony formation in human MDA-MB-468 cells at 0.63 to 10 uM incubated for 12 days with 48 hrs fresh compound replenishment by crystal violet staining based analysis; format: functional, cell-based; conditions: dose 0.63-10 µM, time 12.0 day
[31] = system: MDA-MB-231; assay: Inhibition of colony formation in human MDA-MB-231 cells at 0.63 to 10 uM incubated for 12 days with 48 hrs fresh compound replenishment by crystal violet staining based analysis; format: functional, cell-based; conditions: dose 0.63-10 µM, time 12.0 day
[32] = molecular target: T1, Peptidyl-prolyl cis-trans isomerase NIMA-interacting 1; assay: Covalent binding affinity to N-terminal His6-tagged human Pin1 expressed in Escherichia coli BL21 (DE3) assessed as increase in 292.1 Da molecular weight incubated for overnight by mass spectrometry
[33] = molecular target: T1, Peptidyl-prolyl cis-trans isomerase NIMA-interacting 1; assay: Inhibition of Pin1 in human MDA-MB-231 cells assessed as reduction in MCL-1 gene expression at 8 to 16 uM incubated for 24 hrs by qRT-PCR analysis; format: cell-based; conditions: dose 8-16 µM
[34] = molecular target: T1, Peptidyl-prolyl cis-trans isomerase NIMA-interacting 1; assay: Inhibition of Pin1 in human MDA-MB-231 cells assessed as reduction in C-MYC gene expression at 8 to 16 uM incubated for 24 hrs by qRT-PCR analysis; format: cell-based; conditions: dose 8-16 µM
[35] = molecular target: T1, Peptidyl-prolyl cis-trans isomerase NIMA-interacting 1; assay: Inhibition of Pin1 in human MDA-MB-231 cells assessed as reduction in CCND1 gene expression at 8 to 16 uM incubated for 24 hrs by qRT-PCR analysis; format: cell-based; conditions: dose 8-16 µM

SMILES: CC(Cl)C(=O)N1CCC2(CC1)SCC(=O)N2Cc1ccc(-c2ccccc2)o1 (centres undefined)
- Ratio IC50 [2]: > 10
- IC50 [14]: > 100000 nM

SMILES: O=C(CCl)N1CCC2(CC1)SCC(=O)N2Cc1ccc(-c2ccc(C(F)(F)F)cc2)o1
- Ratio IC50 [2]: 0.54
- IC50 [14]: 720 nM

SMILES: C=CC(=O)N1CCC2(CC1)SCC(=O)N2Cc1ccc(-c2ccccc2)o1
- Ratio IC50 [2]: > 10
- IC50 [14]: > 100000 nM

SMILES: Cc1cccc(N2C(=O)CSC23CCN(C(=O)CCl)CC3)c1
- inhibition [29]: > 50%

SMILES: O=C(CCl)N1CCC2(CC1)SCC(=O)N2Cc1ccc(-c2ccc(-c3ccccc3)cc2)o1
- Ratio IC50 [2]: 1
- IC50 [14]: 1320 nM

SMILES: CC(=O)N1CCC2(CC1)SCC(=O)N2Cc1ccc(-c2cccc3ccccc23)o1
- Ratio IC50 [2]: > 10
- IC50 [14]: > 100000 nM

SMILES: Cc1ccc(N2C(=O)CSC23CCN(C(=O)CCl)CC3)cc1
- inhibition [29]: > 50%

SMILES: O=C(CCl)N1CCC2(CC1)SCC(=O)N2CCc1ccc(-c2ccccc2)o1
- Ratio IC50 [2]: 0.8
- IC50 [14]: 1060 nM

SMILES: O=C(CCl)N1CCC2(CC1)SCC(=O)N2c1ccc(Cl)cc1
- inhibition [29]: > 50%

SMILES: CC(=O)N1CCC2(CC1)SCC(=O)N2Cc1ccco1
- Ratio IC50 [2]: > 10
- IC50 [14]: > 100000 nM

SMILES: O=C(CCl)N1CCC2(CC1)SCC(=O)N2Cc1ccc(Br)o1
- Ratio IC50 [2]: 0.46
- IC50 [14]: 610 nM

SMILES: O=C(CCl)N1CCC2(CC1)SCC(=O)N2Cc1ccccc1
- inhibition [29]: > 50%

SMILES: O=C(CCl)N1CCC2(CC1)SCC(=O)N2Cc1ccco1
- Activity [1]: 100%
- inhibition [29]: > 50%
- IC50 [4]: 12800 nM
- IC50 [5]: 8600 nM
- inhibition [30]: Active
- inhibition [31]: Active
- IC50 [14]: 1330 nM
- Activity [32]: Active
- Activity [15]: Active
- inhibition [33]: Active
- inhibition [34]: Active
- inhibition [35]: Active

The next lines start with results.

- Activity [1]: 100%
- Ratio IC50 [2]: 0.05
- IC50 [4]: 2800 nM
- IC50 [5]: 1900 nM
- inhibition [7]: Dose-Dependent Effect
- inhibition [8]: Active
- inhibition [9]: Active
- inhibition [10]: Active
- IC50 [14]: 67 nM
- Activity [15]: Active
- Activity [16]: Active
- inhibition [17]: Active
- inhibition [18]: inactive
- Activity [19]: inactive
- Kinact [20]: 0.058 min⁻¹
- Ratio [21]: 27.1 M⁻¹ s⁻¹
- inhibition [26]: Dose-Dependent Effect
- inhibition [27]: Dose-Dependent Effect
- inhibition [28]: Dose-Dependent Effect
SMILES: O=C(CCl)N1CCC2(CC1)SCC(=O)N2Cc1ccc(-c2cccc3ccccc23)o1
- inhibition [3]: inactive
- Activity [6]: Active
- inhibition [11]: inactive
- inhibition [12]: inactive
- inhibition [13]: inactive
- inhibition [22]: Active
- inhibition [23]: Active
- inhibition [24]: inactive
- inhibition [25]: inactive

- Ratio IC50 [2]: 0.42
- IC50 [14]: 560 nM
SMILES: O=C(CCl)N1CCC2(CC1)SCC(=O)N2Cc1ccc(Cl)o1

- Ratio IC50 [2]: 0.19
- IC50 [14]: 250 nM
SMILES: COc1ccc(-c2ccc(CN3C(=O)CSC34CCN(C(=O)CCl)CC4)o2)cc1

- Ratio IC50 [2]: 0.2
- IC50 [14]: 270 nM
SMILES: Cc1ccc(-c2ccc(CN3C(=O)CSC34CCN(C(=O)CCl)CC4)o2)cc1

- Ratio IC50 [2]: 0.27
- IC50 [14]: 360 nM
SMILES: CS(=O)(=O)c1ccc(-c2ccc(CN3C(=O)CSC34CCN(C(=O)CCl)CC4)o2)cc1

- Ratio IC50 [2]: 0.29
- IC50 [14]: 380 nM
SMILES: O=C(CCl)N1CCC2(CC1)SCC(=O)N2Cc1ccc(-c2ccc3ccccc3c2)o1

- Ratio IC50 [2]: 0.33
- IC50 [14]: 440 nM
SMILES: N#Cc1ccc(-c2ccc(CN3C(=O)CSC34CCN(C(=O)CCl)CC4)o2)cc1

- Ratio IC50 [2]: 0.2
- IC50 [14]: 260 nM
SMILES: O=C(CCl)N1CCC2(CC1)SCC(=O)N2Cc1ccc(-c2ccccc2)o1
